Assays:
A549 = assay: Cytotoxicity against human A549 cells assessed as cell viability measured after 24 hrs by MTT assay; assay type: functional, cell-based; conditions: A549, 24 h
C6 [1] = assay: Cytotoxicity against rat C6 cells assessed as cell viability measured after 24 hrs by MTT assay; assay type: functional, cell-based; conditions: C6, 24 h
HepG2 [2] = assay: Cytotoxicity against human HepG2 cells assessed as cell viability measured after 24 hrs by MTT assay; assay type: functional, cell-based; conditions: HepG2, 24 h
HT-29 = assay: Cytotoxicity against human HT-29 cells assessed as cell viability measured after 24 hrs by MTT assay; assay type: functional, cell-based; conditions: HT-29, 24 h
MCF7 = assay: Cytotoxicity against human MCF7 cells assessed as cell viability measured after 24 hrs by MTT assay; assay type: functional, cell-based; conditions: MCF7, 24 h
NIH3T3 = assay: Cytotoxicity against mouse NIH3T3 cells assessed as cell viability measured after 24 hrs by MTT assay; assay type: cell-based; conditions: NIH3T3, 24 h
[3] = Selectivity index, ratio of IC50 for cytotoxicity against mouse NIH3T3 cells to IC50 for cytotoxicity against human A549 cells; assay type: toxicity, cell-based; conditions: NIH3T3 cells versus A549 cells, read-out: Ratio IC50
[4] = Selectivity index, ratio of IC50 for cytotoxicity against mouse NIH3T3 cells to IC50 for cytotoxicity against rat C6 cells; assay type: toxicity, cell-based; conditions: NIH3T3 cells versus C6 cells, read-out: Ratio IC50
[5] = Selectivity index, ratio of IC50 for cytotoxicity against mouse NIH3T3 cells to IC50 for cytotoxicity against human HepG2 cells; assay type: toxicity, cell-based; conditions: NIH3T3 cells versus HepG2 cells, read-out: Ratio IC50
[6] = Selectivity index, ratio of IC50 for cytotoxicity against mouse NIH3T3 cells to IC50 for cytotoxicity against human HT-29 cells; assay type: toxicity, cell-based; conditions: NIH3T3 cells versus HT-29 cells, read-out: Ratio IC50
[7] = Selectivity index, ratio of IC50 for cytotoxicity against mouse NIH3T3 cells to IC50 for cytotoxicity against human MCF7 cells; assay type: toxicity, cell-based; conditions: NIH3T3 cells versus MCF7 cells, read-out: Ratio IC50
C6 [8] = assay: Inhibition of DNA synthesis in rat C6 cells assessed as reduction in cell proliferation measured after 24 to 48 hrs by BrdU proliferation assay; assay type: functional, cell-based; conditions: time 24-48 hrs
C6 [9] = assay: Induction of apoptosis in rat C6 cells assessed as apoptotic cells at IC50 concentration measured after 24 hrs by Annexin V-FITC/PI staining based flow cytometry method relative to control; assay type: functional
HepG2 [10] = assay: Inhibition of DNA synthesis in human HepG2 cells assessed as reduction in cell proliferation measured after 24 to 48 hrs by BrdU proliferation assay; assay type: functional, cell-based; conditions: time 24-48 hrs
HepG2 [11] = assay: Induction of apoptosis in human HepG2 cells assessed as viable cells at IC50 concentration measured after 24 hrs by Annexin V-FITC/PI staining based flow cytometry method (reference value: 87.8%); assay type: functional
HepG2 [12] = assay: Induction of apoptosis in human HepG2 cells assessed as early apoptotic cells at IC50 concentration measured after 24 hrs by Annexin V-FITC/PI staining based flow cytometry method (reference value: 0.9%); assay type: functional
HepG2 [13] = assay: Induction of apoptosis in human HepG2 cells assessed as late apoptotic cells at IC50 concentration measured after 24 hrs by Annexin V-FITC/PI staining based flow cytometry method (reference value: 8.7%); assay type: functional
HepG2 [14] = assay: Induction of apoptosis in human HepG2 cells assessed as necrotic cells at IC50 concentration measured after 24 hrs by Annexin V-FITC/PI staining based flow cytometry method (reference value: 4.6%); assay type: functional

Compound | IC50 (A549) [µM] | IC50 (C6 [1]) [µM] | IC50 (HepG2 [2]) [µM] | IC50 (HT-29) [µM] | IC50 (MCF7) [µM] | IC50 (NIH3T3) [µM] | selectivity ratio [3] | selectivity ratio [4] | selectivity ratio [5] | selectivity ratio [6] | selectivity ratio [7] | inhibition (C6 [8]) | Activity (C6 [9]) [%] | inhibition (HepG2 [10]) | Activity (HepG2 [11]) [%] | Activity (HepG2 [12]) [%] | Activity (HepG2 [13]) [%] | Activity (HepG2 [14]) [%]
Cc1cc(-c2nc3cc(F)ccc3o2)ccc1NC(=O)CCl | 64.5 | > 100 | 16.6 | 25.4 | > 100 | 10.5 | 0.16 | < 0.11 | 0.63 | 0.41 | < 0.11 |  |  |  |  |  |  | 
CN(C)CCCN1CCN(CC(=O)Nc2ccc(-c3nc4cc(F)ccc4o3)cc2)CC1 | 12.2 | 27.5 | 9.18 | 2.59 | 14.8 | 21.9 | 1.8 | 0.8 | 2.39 | 8.46 | 1.49 |  |  |  |  |  |  | 
CN(C)CCN1CCN(CC(=O)Nc2ccc(-c3nc4ccccc4o3)cc2)CC1 | 18.7 | 7.01 | 16.3 | 5.31 | 59.4 | 35.8 | 1.92 | 5.11 | 2.2 | 6.74 | 0.6 |  |  |  |  |  |  | 
Cc1ccc2oc(-c3ccc(NC(=O)CCl)c(C)c3)nc2c1 | 61.8 | 97.6 | 54.8 | 13.8 | 96.5 | 6.79 | 0.11 | 0.07 | 0.12 | 0.49 | 0.07 |  |  |  |  |  |  | 
Cc1ccc2oc(-c3ccc(NC(=O)CN4CCN(CCCN(C)C)CC4)cc3)nc2c1 | 10.6 | 1.81 | 3.16 | 3.89 | 19.1 | 26.4 | 2.5 | 14.6 | 8.36 | 6.79 | 1.38 | Dose-dependent effect | 14 |  |  |  |  | 
Cc1ccc2oc(-c3ccc(NC(=O)CCl)cc3)nc2c1 | 36.1 | 4.04 | 21.5 | 15.2 | 4.62 | 11.6 | 0.32 | 2.86 | 0.54 | 0.76 | 2.5 |  |  |  |  |  |  | 
Cc1ccc2oc(-c3ccc(NC(=O)CN4CCN(CCN(C)C)CC4)c(C)c3)nc2c1 | 11 | 16.6 | 12.8 | 7.24 | 90.3 | 5.67 | 0.51 | 0.34 | 0.44 | 0.78 | 0.06 |  |  |  |  |  |  | 
Cc1cc(-c2nc3cc(F)ccc3o2)ccc1NC(=O)CN1CCN(CCN(C)C)CC1 | 7.37 | 10.7 | 9.46 | 6.6 | 10.4 | 62.1 | 8.42 | 5.8 | 6.56 | 9.41 | 5.96 |  |  |  |  |  |  | 
Cc1cc(-c2nc3cc(F)ccc3o2)ccc1NC(=O)CN1CCN(CCCN(C)C)CC1 | 12.2 | 11.8 | 7.15 | 6.7 | 7.77 | 65.7 | 5.39 | 5.59 | 9.19 | 9.8 | 8.45 |  |  |  |  |  |  | 
Cc1cc(-c2nc3cc(Cl)ccc3o2)ccc1NC(=O)CN1CCN(CCN(C)C)CC1 | 24.4 | 13.5 | 3.88 | 13.2 | 39.3 | 19.2 | 0.79 | 1.43 | 4.95 | 1.45 | 0.49 |  |  |  |  |  |  | 
O=C(CCl)Nc1ccc(-c2nc3cc(F)ccc3o2)cc1 | 37.7 | 2.99 | 8.12 | 6.93 | 3.26 | 9.19 | 0.24 | 3.07 | 1.13 | 1.33 | 2.82 |  |  |  |  |  |  | 
Cc1cc(-c2nc3ccccc3o2)ccc1NC(=O)CN1CCN(CCCN(C)C)CC1 | 22.1 | 38.7 | 2.16 | 15.5 | 11.3 | 33.5 | 1.52 | 0.86 | 15.5 | 2.17 | 2.97 |  |  | Dose-dependent effect | 77.5 | 5 | 16.7 | 0.8
CN(C)CCCN1CCN(CC(=O)Nc2ccc(-c3nc4ccccc4o3)cc2)CC1 | 18.3 | 42.3 | 9.5 | 10.6 | 23.4 | 16.7 | 0.91 | 0.39 | 1.76 | 1.57 | 0.71 |  |  |  |  |  |  | 
Cc1cc(-c2nc3cc(Cl)ccc3o2)ccc1NC(=O)CN1CCN(CCCN(C)C)CC1 | 10.5 | 14.2 | 11.2 | 9.15 | 63.4 | 28.6 | 2.73 | 2.01 | 2.56 | 3.12 | 0.45 |  |  |  |  |  |  | 
Cc1cc(-c2nc3ccccc3o2)ccc1NC(=O)CCl | 33.5 | 27.2 | 14.8 | 13.8 | 29.8 | 12.2 | 0.36 | 0.45 | 0.82 | 0.88 | 0.41 |  |  |  |  |  |  | 
Cc1cc(-c2nc3ccccc3o2)ccc1NC(=O)CN1CCN(CCN(C)C)CC1 | 30.5 | 42.7 | 19.9 | 12.9 | 41.6 | 63.5 | 2.09 | 1.49 | 3.2 | 4.94 | 1.53 |  |  |  |  |  |  | 
CN(C)CCN1CCN(CC(=O)Nc2ccc(-c3nc4cc(F)ccc4o3)cc2)CC1 | 16.6 | 4.39 | 18.8 | 8.19 | 20.8 | 72 | 4.33 | 16.4 | 3.84 | 8.79 | 3.46 | Dose-dependent effect | 46 |  |  |  |  | 
Cc1cc(-c2nc3cc(Cl)ccc3o2)ccc1NC(=O)CCl | 91.5 | > 100 | 35 | > 100 | > 100 | 8.64 | 0.09 | < 0.09 | 0.25 | < 0.09 | < 0.09 |  |  |  |  |  |  | 
Cc1ccc2oc(-c3ccc(NC(=O)CN4CCN(CCCN(C)C)CC4)c(C)c3)nc2c1 | 15.3 | 7.32 | 5.65 | 12.7 | 19.8 | 13.2 | 0.87 | 1.81 | 2.34 | 1.04 | 0.67 |  |  |  |  |  |  | 

From ChEMBL document CHEMBL4732094, “Synthesis of some new benzoxazole derivatives and investigation of their anticancer activities” (Eur J Med Chem, 2021)
